# From ChEMBL document CHEMBL3885881, “DrugMatrix”
# Species on record: Rattus norvegicus
# Assay: DrugMatrix - Regimen: Daily Repeat
# Format: toxicity, organism-based, Sprague-Dawley
# Set-up: regimen Daily Repeat, gender Male, age 6-8 weeks
# Settings: in vivo, po, route oral GAVAGE, vehicle 100 % SALINE; for ABSOLUTE BASOPHIL / ABSOLUTE EOSINOPHIL / ABSOLUTE LYMPHOCYTE / ABSOLUTE MONOCYTE / ABSOLUTE SEGMENTED NEUTROPHIL / BASOPHIL / EOSINOPHIL / ERYTHROCYTE COUNT / HEMATOCRIT / HEMOGLOBIN / LEUKOCYTE COUNT / LYMPHOCYTE / MEAN CORPUSCULAR HEMOGLOBIN / MEAN CORPUSCULAR HEMOGLOBIN CONCENTRATION / MEAN CORPUSCULAR VOLUME / MONOCYTE / NEUTROPHIL / NUCLEATED RED BLOOD CELLS / PLATELET COUNT: tissue Blood; for ALANINE AMINOTRANSFERASE / ALBUMIN / ALKALINE PHOSPHATASE / ASPARTATE AMINOTRANSFERASE / BLOOD UREA NITROGEN / CARBON DIOXIDE / CHLORIDE / CHOLESTEROL / CREATINE PHOSPHOKINASE / CREATININE / GLUCOSE / LACTATE DEHYDROGENASE / LIPASE / PHOSPHORUS / POTASSIUM / SODIUM / TOTAL BILIRUBIN / TOTAL PROTEIN / URIC ACID: tissue Plasma
# [1] = 11 mg/kg, 120 h, dose level High, time 5 day
# [2] = […], 72 h, dose 2.8 mg/Kg, dose level Low, time 3 day
# [3] = […], 120 h, dose 2.8 mg/Kg, dose level Low, time 5 day
smiles,measurement,setting,value
Cc1cc(CC(=O)O)n(C)c1C(=O)c1ccc(Cl)cc1 [ZOMEPIRAC],ABSOLUTE BASOPHIL,[1],0 CELLS/uL
same,ABSOLUTE EOSINOPHIL,[1],95 CELLS/uL
same,ABSOLUTE LYMPHOCYTE,[1],12621.33 CELLS/uL
same,ABSOLUTE MONOCYTE,[1],94.67 CELLS/uL
same,ABSOLUTE SEGMENTED NEUTROPHIL,[1],855.67 CELLS/uL
same,BASOPHIL,[1],0%
same,EOSINOPHIL,[1],0.67%
same,ERYTHROCYTE COUNT,[1],5.5 x10E6/uL
same,HEMATOCRIT,[1],34.03%
same,HEMOGLOBIN,[1],13.2 G/DL
same,LEUKOCYTE COUNT,[1],13.67 x10E3/uL
same,LYMPHOCYTE,[1],92.33%
same,MEAN CORPUSCULAR HEMOGLOBIN,[1],24.13 pg
same,MEAN CORPUSCULAR HEMOGLOBIN CONCENTRATION,[1],38.87 G/DL
same,MEAN CORPUSCULAR VOLUME,[1],62.1 fL
same,MONOCYTE,[1],0.67%
same,NEUTROPHIL,[1],6.33%
same,NUCLEATED RED BLOOD CELLS,[1],0 /100WBC
same,PLATELET COUNT,[1],1240 x10E3/uL
same,ALANINE AMINOTRANSFERASE,[1],49.33 u/L
same,ALBUMIN,[1],3.77 G/DL
same,ALKALINE PHOSPHATASE,[1],252.67 u/L
same,ASPARTATE AMINOTRANSFERASE,[1],97.67 u/L
same,BLOOD UREA NITROGEN,[1],15.67 mg/dL
same,CARBON DIOXIDE,[1],24 mmol/L
same,CHLORIDE,[1],105.33 MEQ/L
same,CHOLESTEROL,[1],76.67 mg/dL
same,CREATINE PHOSPHOKINASE,[1],395.67 u/L
same,CREATININE,[1],0.17 mg/dL
same,GLUCOSE,[1],143.33 mg/dL
same,LACTATE DEHYDROGENASE,[1],595 u/L
same,LIPASE,[1],8.67 u/L
same,PHOSPHORUS,[1],11.83 mg/dL
same,POTASSIUM,[1],6.93 MEQ/L
same,SODIUM,[1],148.57 MEQ/L
same,TOTAL BILIRUBIN,[1],0.13 mg/dL
same,TOTAL PROTEIN,[1],5.87 G/DL
same,URIC ACID,[1],2.33 mg/dL
same,ABSOLUTE BASOPHIL,[2],0 CELLS/uL
same,ABSOLUTE EOSINOPHIL,[2],111.67 CELLS/uL
same,ABSOLUTE LYMPHOCYTE,[2],15209 CELLS/uL
same,ABSOLUTE MONOCYTE,[2],151.67 CELLS/uL
same,ABSOLUTE SEGMENTED NEUTROPHIL,[2],1061 CELLS/uL
same,BASOPHIL,[2],0%
same,EOSINOPHIL,[2],0.67%
same,ERYTHROCYTE COUNT,[2],5.59 x10E6/uL
same,HEMATOCRIT,[2],34.1%
same,HEMOGLOBIN,[2],13.53 G/DL
same,LEUKOCYTE COUNT,[2],16.53 x10E3/uL
same,LYMPHOCYTE,[2],91.33%
same,MEAN CORPUSCULAR HEMOGLOBIN,[2],24.2 pg
same,MEAN CORPUSCULAR HEMOGLOBIN CONCENTRATION,[2],39.7 G/DL
same,MEAN CORPUSCULAR VOLUME,[2],60.97 fL
same,MONOCYTE,[2],1%
same,NEUTROPHIL,[2],7%
same,NUCLEATED RED BLOOD CELLS,[2],0 /100WBC
same,PLATELET COUNT,[2],1145.33 x10E3/uL
same,ALANINE AMINOTRANSFERASE,[2],50.67 u/L
same,ALBUMIN,[2],4 G/DL
same,ALKALINE PHOSPHATASE,[2],259 u/L
same,ASPARTATE AMINOTRANSFERASE,[2],76.67 u/L
same,BLOOD UREA NITROGEN,[2],14.67 mg/dL
same,CARBON DIOXIDE,[2],23 mmol/L
same,CHLORIDE,[2],102 MEQ/L
same,CHOLESTEROL,[2],65.33 mg/dL
same,CREATINE PHOSPHOKINASE,[2],362.33 u/L
same,CREATININE,[2],0.2 mg/dL
same,GLUCOSE,[2],180 mg/dL
same,LACTATE DEHYDROGENASE,[2],137 u/L
same,LIPASE,[2],12.33 u/L
same,PHOSPHORUS,[2],13.07 mg/dL
same,POTASSIUM,[2],6.11 MEQ/L
same,SODIUM,[2],141.93 MEQ/L
same,TOTAL BILIRUBIN,[2],0.2 mg/dL
same,TOTAL PROTEIN,[2],5.77 G/DL
same,URIC ACID,[2],1.6 mg/dL
same,ABSOLUTE BASOPHIL,[3],0 CELLS/uL
same,ABSOLUTE EOSINOPHIL,[3],70.67 CELLS/uL
same,ABSOLUTE LYMPHOCYTE,[3],13627.67 CELLS/uL
same,ABSOLUTE MONOCYTE,[3],0 CELLS/uL
same,ABSOLUTE SEGMENTED NEUTROPHIL,[3],1235 CELLS/uL
same,BASOPHIL,[3],0%
same,EOSINOPHIL,[3],0.33%
same,ERYTHROCYTE COUNT,[3],5.81 x10E6/uL
same,HEMATOCRIT,[3],35.67%
same,HEMOGLOBIN,[3],14.07 G/DL
same,LEUKOCYTE COUNT,[3],14.93 x10E3/uL
same,LYMPHOCYTE,[3],91.33%
same,MEAN CORPUSCULAR HEMOGLOBIN,[3],24.23 pg
same,MEAN CORPUSCULAR HEMOGLOBIN CONCENTRATION,[3],39.47 G/DL
same,MEAN CORPUSCULAR VOLUME,[3],61.53 fL
same,MONOCYTE,[3],0%
same,NEUTROPHIL,[3],8.33%
same,NUCLEATED RED BLOOD CELLS,[3],0 /100WBC
same,PLATELET COUNT,[3],1274.67 x10E3/uL
same,ALANINE AMINOTRANSFERASE,[3],59.33 u/L
same,ALBUMIN,[3],4.17 G/DL
same,ALKALINE PHOSPHATASE,[3],331 u/L
same,ASPARTATE AMINOTRANSFERASE,[3],103.33 u/L
same,BLOOD UREA NITROGEN,[3],16.33 mg/dL
same,CARBON DIOXIDE,[3],22.67 mmol/L
same,CHLORIDE,[3],104.67 MEQ/L
same,CHOLESTEROL,[3],64.33 mg/dL
same,CREATINE PHOSPHOKINASE,[3],532.33 u/L
same,CREATININE,[3],0.2 mg/dL
same,GLUCOSE,[3],159.67 mg/dL
same,LACTATE DEHYDROGENASE,[3],749.67 u/L
same,LIPASE,[3],10 u/L
same,PHOSPHORUS,[3],12.53 mg/dL
same,POTASSIUM,[3],6.9 MEQ/L
same,SODIUM,[3],147.37 MEQ/L
same,TOTAL BILIRUBIN,[3],0.2 mg/dL
same,TOTAL PROTEIN,[3],6.2 G/DL
same,URIC ACID,[3],2 mg/dL
